Laboratory results reported in patent publication US20180296531A1, “STIMULATION OF 11B-HSD2 EXPRESSION TO IMPROVE HORMONAL THERAPY OF STEROID-DEPENDENT DISEASE” (THE CLEVELAND CLINIC FOUNDATION, priority 2015, published 2018).

Assays:
serum corticosterone = assay: Mass spectrometry of corticosterone in mouse serum; format: in vivo
Procedure: Mouse serum analysis. At the endpoint of the xenograft study, mouse serum was collected. 20 μl of mouse serum and internal standard (corticosterone-d8) were precipitated with 200 μl methanol. After centrifugation, the supernatant was transferred to HPLC vials prior to mass spectrometry analysis.
The LC-MS/MS system contains an ultra-pressure liquid chromatography system (Shimadzu Corporation, Japan) which is consisted of two LC-30AD pumps, a DGU-20A5R degasser, a CTO-30A column oven, SIL-30AC autosampler, and a system controller CBM-20A and coupled with a Qtrap 5500 mass spectrometer (AB Sciex). Data acquisition and processing were performed using Analyst® software (version 1.6.2) from ABSciex.
Steroids were ionized using electrospray ionization in positive mode. Quantification of analytes was performed using multiple reaction monitoring. The mass transitions for corticosterone, 11-dehydrocorticosterone, and internal standard are 347.3/121.0, 345.3/121.0, and 355.3/125.0, respectively. Separation of steroids was achieved using a Zorbax Eclipse plus C18 column (Agilent) using mobile phase consisting of (A) 0.2% formic acid in water and (B) 0.2% formic acid in (methanol:acetonitrile, 60:40) with a gradient program at a flow rate of 0.2 ml/min. Sample injection volume was 10 μl.

[1] = test system: GR, HSD11B2, HSD11B1 transcripts; assay: qPCR of GR, HSD11B2 and HSD11B1 transcripts; format: cell-based, human
Procedure: LAPC4 cells were treated with Enz for 36 days and then seeded into 12 well plates coated with poly-DL-ornithine at 50% confluence. After incubation overnight, the cells were transfected with 11β-HSD2-FLAG plasmid for 48 hours by using the TranslT®-2020 Transfection Reagent (Mirus) according to the protocol provided by the manufacturer, then maintained in phenol-red-free medium with 5% Charcoal:Dextran-stripped FBS for 48 hours before being treated with the indicated drugs. Total RNA was extracted with a GenElute Mammalian Total RNA miniprep kit (Sigma-Aldrich) and 1 μg RNA was reverse-transcribed to cDNA with the iScript cDNA Synthesis Kit (Bio-Rad). An ABI 7500 Real-Time PCR machine (Applied Biosystems) was used to perform the qPCR analysis, using iTaq Fast SYBR Green Supermix with ROX (Bio-Rad) in 96-well plates at a final reaction volume of 10 μl. The qPCR analysis was carried out in triplicate with suitable primers. Each mRNA transcript was quantitated by normalizing the sample values to RPLP0 and to vehicle treated cells (for steroid treated cells). All gene expression studies were repeated in independent experiments.

11β-HSD2 protein [2] = assay: Human prostate cancer tissue studies, 11β-HSD2 protein; conditions: tissues from patients with prostate cancer treated with enzalutamide (in patients or ex vivo 10 μM, 7-8 days)
Procedure: All deidentified human tissues were obtained using institutional review board (IRB)-approved protocols. Pre- and post-Enz lymph node tissues were obtained from CT-guided biopsy of metastatic CRPC from Cleveland Clinic (Patient #3) and Dana-Farber Cancer Institute (Patient #4). Pathologic identification of tumor was done by an expert prostate cancer pathologist. Staining of tissues from Patient #4 was done with frozen section slides that were air dried at room temperature for 5 minutes, followed by rehydration with PBS. Immunofluorescence staining was performed as described above. H&E staining was completed by the imagine core of Biomedical Engineering Department in Lerner Research Institute of Cleveland Clinic.
Paired pre-Enz treatment and post-Enz treatment tissues from Patient #1 and Patient #2 were obtained from patients with localized prostate cancer treated with Enz plus ADT for 2 months prior to the second biopsy in a clinical trial (NCT02064582) at the University of Texas Southwestern Medical Center. Biopsies were obtained using image-guidance with a Koelis Urostation. The biopsy cores were minced into pieces and then added into Soft tissue homogenizing CK14 tubes (Betin Technologies) with 100 μl 6M Urea buffer containing protease inhibitors (Sigma Aldrich). Tissue homogenization and immunoblot analysis were performed as described previously. […]

LAPC4 cells = assay: Cell viability assay (CellTiter-Glo); format: cell-based, human
Procedure: LAPC4 cells or the long-term Enz treated LAPC4 cells were plated in triplicate in 96 well plates coated with poly-DL-ornithine and incubated overnight, then treated with Enz and assayed in triplicate at the time points indicated using CellTiter-Glo (Promega). Viability is normalized to day 0.

[3] = test system: LAPC4 xenografts grown in orchiectomized mice; assay: Xenograft cortisol metabolism: [3H]-cortisol inactivation in freshly harvested tumors; format: in vivo, mouse; conditions: CRPC xenograft tumors from enzalutamide-treated mice vs orchiectomy alone
Procedure: Xenograft metabolism. LAPC4 cells (˜10^7) were injected subcutaneously with Matrigel (Corning) into surgically orchiectomized NSG mice that were implanted with DHEA pellets (5 mg/pellet, 90-day sustained-release, Innovative Research of America). Fresh xenografts were harvested and ˜40 mg xenograft tissues were minced, and cultured in IMEM with 10% FBS at 37° C. with a mixture of [^3H]-cortisol and non-radiolabeled cortisol. Aliquots of media were collected at the indicated time points, steroids were extracted and concentrated as described above.

11β-HSD2 protein [4] = assay: Immunoblot of 11β-HSD2 protein in prostate cancer cell lines; format: cell-based, human
Procedure: For protein analysis, immunoblots were performed as described previously. Li et al., J Clin Endocrinol Metab 98, E1189-1197 (2013). Briefly, total cellular protein was extracted with ice cold RIPA lysis buffer (Sigma-Aldrich) containing protease inhibitors (Roche). 30-50 μg protein was separated by 8% SDS-PAGE gel and then transferred to a nitrocellulose membrane (Millipore). After incubating with the anti-11β-HSD2 antibody (Santa Cruz; 1:3000), anti-11β-HSD1 antibody (Santa Cruz; 1:1000), GR antibody (BD Biosciences; 1:1000), anti-Erlin-2 antibody (Cell Signaling Technology: 1:1000) or anti-AMFR antibody (Proteintech; 1:1000) overnight at 4° C., the appropriate secondary antibody was incubated for 1 hour at room temperature. The chemiluminescent detection system (Thermo Scientific) was used to detect the bands with peroxidase activity. An anti-β-actin antibody (Sigma-Aldrich; 1:5000) was used as a control for sample loading.

[5] = enzalutamide treated 11β-HSD2 mice
[6] = enzalutamide treated vector mice
[7] = long-term Enz treatment, LAPC4 and VCaP

SMILES: CNC(=O)c1ccc(N2C(=S)N(c3ccc(C#N)c(C(F)(F)F)c3)C(=O)C2(C)C)cc1F [enzalutamide]
- serum corticosterone absolute concentration (serum corticosterone; [5]): 867 pmol/mL
- serum percentage of corticosterone (serum corticosterone; [5]): 99.85%
- serum corticosterone absolute concentration (serum corticosterone; [6]): 873 pmol/mL
- serum percentage of corticosterone (serum corticosterone; [6]): 99.87%
- expression of GR, HSD11B2 or HSD11B1 transcripts ([1]; LAPC4, 24 hours (acute)): no acute effect on expression of GR, HSD11B2 or HSD11B1
- GR transcript [1, 7]: GR transcript increases
- HSD11B2 mRNA [1, 7]: No suppression of HSD11B2 mRNA
- patient tissues with loss of 11β-HSD2 with treatment (11β-HSD2 protein [2]): Nine of 11
- cell growth / viability (LAPC4 cells; LAPC4, after sustained (long-term) enzalutamide treatment): Growth recovers
- cell viability (LAPC4 cells; LAPC4 in vitro, short-term treatment): suppresses LAPC4 viability
- inactivation of [3H]-cortisol by conversion to cortisone [3]: impaired capability of inactivating [^3H]-cortisol
- 11β-HSD2 protein expression (11β-HSD2 protein [4]; AR-negative DU145 prostate cancer cell line): does not change 11β-HSD2 protein expression
- 11β-HSD2 protein (11β-HSD2 protein [4]; LAPC4): Loss of 11β-HSD2 protein
- 11β-HSD2 protein (11β-HSD2 protein [4]; MDA-PCa-2b): Loss of 11β-HSD2 protein
- 11β-HSD2 protein (11β-HSD2 protein [4]; VCaP): Loss of 11β-HSD2 protein
